Data published in article PMC3961306, “Comparison of the Cancer Gene Targeting and Biochemical Selectivities of All Targeted Kinase Inhibitors Approved for Clinical Use” (PLoS ONE, 2014).
Like-named read-outs stand apart in the source and are kept apart here.

Legend:
Assay in all cases: Kinase profiling in a biochemical assay panel (mobility shift assays and ELISA), %-inhibition at 1 μM; selectivity entropy
[1] = target: panel of more than 300 wild-type and mutant kinases (313 kinase panel) (Homo sapiens, UniProt P08069)
[2] = target: T1, panel of more than 300 wild-type and mutant kinases (313 kinase panel) (Homo sapiens, UniProt P21709)
T1 sequence (P21709 26-976): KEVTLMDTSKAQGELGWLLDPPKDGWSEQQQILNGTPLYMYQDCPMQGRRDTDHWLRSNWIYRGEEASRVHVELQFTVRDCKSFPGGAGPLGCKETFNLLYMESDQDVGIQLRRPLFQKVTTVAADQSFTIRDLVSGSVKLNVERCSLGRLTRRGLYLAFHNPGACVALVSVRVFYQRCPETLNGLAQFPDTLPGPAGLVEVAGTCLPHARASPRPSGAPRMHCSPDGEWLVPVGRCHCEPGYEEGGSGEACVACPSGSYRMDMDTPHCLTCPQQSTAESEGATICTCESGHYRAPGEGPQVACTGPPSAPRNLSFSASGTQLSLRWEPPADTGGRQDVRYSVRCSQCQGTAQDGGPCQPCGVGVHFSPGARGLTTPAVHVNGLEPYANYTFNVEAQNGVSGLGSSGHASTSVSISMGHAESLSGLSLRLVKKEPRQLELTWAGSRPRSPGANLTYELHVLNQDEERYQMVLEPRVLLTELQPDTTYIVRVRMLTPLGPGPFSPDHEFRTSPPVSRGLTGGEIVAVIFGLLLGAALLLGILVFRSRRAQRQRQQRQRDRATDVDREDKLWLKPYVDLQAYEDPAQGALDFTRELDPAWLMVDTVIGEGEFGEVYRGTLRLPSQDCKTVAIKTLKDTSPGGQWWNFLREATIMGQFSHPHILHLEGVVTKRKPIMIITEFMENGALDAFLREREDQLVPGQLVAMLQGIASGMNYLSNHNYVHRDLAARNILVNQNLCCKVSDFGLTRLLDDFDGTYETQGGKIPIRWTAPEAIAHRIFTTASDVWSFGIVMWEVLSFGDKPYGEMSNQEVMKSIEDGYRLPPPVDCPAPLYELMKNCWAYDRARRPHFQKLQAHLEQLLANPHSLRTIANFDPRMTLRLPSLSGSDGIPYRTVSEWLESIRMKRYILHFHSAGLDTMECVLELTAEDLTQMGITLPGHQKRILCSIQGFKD

[3] = target: panel of more than 300 wild-type and mutant kinases (313 kinase panel) (Homo sapiens, UniProt P49840)
[4] = target: panel of more than 300 wild-type and mutant kinases (313 kinase panel) (Homo sapiens, UniProt Q9H422)
[5] = target: T2, panel of more than 300 wild-type and mutant kinases (313 kinase panel) (Homo sapiens, UniProt O14733)
T2 sequence (O14733 1-419): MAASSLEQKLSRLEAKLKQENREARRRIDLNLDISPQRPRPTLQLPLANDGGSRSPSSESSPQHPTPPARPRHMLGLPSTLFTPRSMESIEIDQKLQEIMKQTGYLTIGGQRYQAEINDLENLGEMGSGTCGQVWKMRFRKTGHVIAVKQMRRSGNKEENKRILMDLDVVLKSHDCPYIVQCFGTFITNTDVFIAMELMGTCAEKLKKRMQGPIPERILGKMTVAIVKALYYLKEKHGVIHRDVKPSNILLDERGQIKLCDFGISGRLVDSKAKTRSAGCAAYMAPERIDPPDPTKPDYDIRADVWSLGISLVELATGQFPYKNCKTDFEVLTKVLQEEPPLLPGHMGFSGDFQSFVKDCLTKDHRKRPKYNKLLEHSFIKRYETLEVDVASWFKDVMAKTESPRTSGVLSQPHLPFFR

[6] = target: panel of more than 300 wild-type and mutant kinases (313 kinase panel) (Homo sapiens, UniProt P21802)
[7] = target: panel of more than 300 wild-type and mutant kinases (313 kinase panel) (Homo sapiens, UniProt Q13627)
[8] = kinase MAP2K7, compound at 1 μM
[9] = kinase DYRK1A, compound at 1 μM

Row | SMILES | %-inhibition of IGF1R ([1]; kinase IGF1R, compound at 1 μM) | %-inhibition of EPHA1 ([2]; kinase EPHA1, compound at 1 μM) | %-inhibition of GSK3α ([3]; 1 µM) | %-inhibition of HIPK3 ([4]; kinase HIPK3, compound at 1 μM) | %-inhibition of MAP2K7 [5, 8] | %-inhibition of FGFR2 ([6]; kinase FGFR2, compound at 1 μM) | %-inhibition of GSK3α ([3]; kinase GSK3α, compound at 1 μM) | %-inhibition of DYRK1A [7, 9] | %-inhibition of MAP2K7 ([5]; 1 µM) | %-inhibition of IGF1R [1] | %-inhibition of EPHA1 ([2]; 1 µM) | %-inhibition of FGFR2 ([6]; 1 µM) | %-inhibition of DYRK1A [7] | %-inhibition of HIPK3 ([4]; 1 µM)
1 | COc1cc(Nc2c(C#N)cnc3cc(OCCCN4CCN(C)CC4)c(OC)cc23)c(Cl)cc1Cl [bosutinib] | 15% | 3% | 9% | -3.66% |  |  |  |  |  |  |  |  |  | 
2 | COc1cc2nccc(Oc3ccc(NC(=O)C4(C(=O)Nc5ccc(F)cc5)CC4)cc3)c2cc1OC [cabozantinib] | 11% | 84% |  | 67% | 10% | 32% | -10% | -5% |  |  |  |  |  | 
3 | C[C@@H](Oc1cc(-c2cnn(C3CCNCC3)c2)cnc1N)c1c(Cl)ccc(F)c1Cl [crizotinib] |  | 97% |  | -6% | 4.36% | 27% | -2.56% | -13% |  |  |  |  |  | 
4 | CC(C)(C)c1nc(-c2cccc(NS(=O)(=O)c3c(F)cccc3F)c2F)c(-c2ccnc(N)n2)s1 [dabrafenib] |  | 44% |  | 65% | -4.55% | 4% |  | 16% |  |  |  |  |  | 
5 | Cc1nc(Nc2ncc(C(=O)Nc3c(C)cccc3Cl)s2)cc(N2CCN(CCO)CC2)n1 [dasatinib] |  | 101% |  |  | -7% |  |  |  |  |  |  |  |  | 
6 | C#Cc1cccc(Nc2ncnc3cc(OCCOC)c(OCCOC)cc23)c1 [erlotinib] |  |  | -4% |  |  |  |  |  | -5% | 7% | 28% | 58% | 20% | 10%
7 | CO[C@H]1C[C@@H]2CC[C@@H](C)[C@@](O)(O2)C(=O)C(=O)N2CCCC[C@H]2C(=O)O[C@H]([C@H](C)C[C@@H]2CC[C@@H](OCCO)[C@H](OC)C2)CC(=O)[C@H](C)/C=C(\C)[C@@H](O)[C@@H](OC)C(=O)[C@H](C)C[C@H](C)/C=C/C=C/C=C/1C [everolimus] | -3.24% | -10% |  | -8% | 11% | -10% | -14% | -11% |  |  |  |  |  | 
8 | O=S(=O)(c1cccc2cnccc12)N1CCCNCC1 [fasudil] | -13% | 0.43% |  | -0.764% | -3.26% | -1.76% | 0.911% | 4.23% |  |  |  |  |  | 
9 | CS(=O)(=O)CCNCc1ccc(-c2ccc3ncnc(Nc4ccc(OCc5cccc(F)c5)c(Cl)c4)c3c2)o1 [lapatinib] | 3.73% | 6% |  | 0.236% | -4% |  | -8% |  |  |  |  | 0.434% | 3.25% | 
10 | Cc1cn(-c2cc(NC(=O)c3ccc(C)c(Nc4nccc(-c5cccnc5)n4)c3)cc(C(F)(F)F)c2)cn1 [nilotinib] | -11% | 61% |  | 12% | -24% |  | -0.491% |  |  |  |  | -67% | -6.52% | 
11 | Cc1ccc(Nc2nccc(N(C)c3ccc4c(C)n(C)nc4c3)n2)cc1S(N)(=O)=O [pazopanib] |  | 54% |  | 3% | 10% | 97% | 6.5% |  |  |  |  |  |  | 
12 | Cc1ccc(C(=O)Nc2ccc(CN3CCN(C)CC3)c(C(F)(F)F)c2)cc1C#Cc1cnc2cccnn12 [ponatinib] | 17% | 97% |  | 27% |  | 100% |  |  |  |  |  |  |  | 
13 | CNC(=O)c1cc(Oc2ccc(NC(=O)Nc3ccc(Cl)c(C(F)(F)F)c3)c(F)c2)ccn1 [regorafenib] | -1.72% | 55% |  | 88% | -2.53% | 103% | 37% | -15% |  |  |  |  |  | 
14 | N#CC[C@H](C1CCCC1)n1cc(-c2ncnc3[nH]ccc23)cn1 [ruxolitinib] | 1.31% | 43% |  | 2% |  | 29% | 9% | -5% | 4% |  |  |  |  | 
15 | CCN(CC)CCNC(=O)c1c(C)[nH]c(/C=C2\C(=O)Nc3ccc(F)cc32)c1C [sunitinib] |  |  |  |  |  | 97% |  |  |  |  |  |  |  | 
16 | CO[C@H]1C[C@@H]2CC[C@@H](C)[C@@](O)(O2)C(=O)C(=O)N2CCCC[C@H]2C(=O)O[C@H]([C@H](C)C[C@@H]2CC[C@@H](OC(=O)C(C)(CO)CO)[C@H](OC)C2)CC(=O)[C@H](C)/C=C(\C)[C@@H](O)[C@@H](OC)C(=O)[C@H](C)C[C@H](C)/C=C/C=C/C=C/1C [temsirolimus] | -4.62% | -15% |  | 0.626% | 10% | -9% | -14% | -3% |  |  |  |  |  | 
17 | CC(=O)Nc1cccc(-n2c(=O)n(C3CC3)c(=O)c3c(Nc4ccc(I)cc4F)n(C)c(=O)c(C)c32)c1 [trametinib] | -10% | -1.61% | 1.59% | 0.0849% | -2.32% | -2.64% |  | -1.23% |  |  |  |  |  | 
18 | COc1cc2c(Nc3ccc(Br)cc3F)ncnc2cc1OCC1CCN(C)CC1 [vandetanib] | -1.72% | 99% |  | -11% | 5.36% | 103% | -5.37% | -11% |  |  |  |  |  | 
19 | CCCS(=O)(=O)Nc1ccc(F)c(C(=O)c2c[nH]c3ncc(-c4ccc(Cl)cc4)cc23)c1F [vemurafenib] | 10% | -9% |  | -6% | 1.65% | 10% | 25% | -18% |  |  |  |  |  | 
